One data set deals with A. baumannii. It is filed as cell-based. In short, it runs like this: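 Laboratory strains and 50 clinical isolates of A. baumannii were tested by CLSI broth microdilution, with serially diluted peptide (0.1-64 μg) and about 1×10^5 C.F.U. per well, incubated aerobically overnight at 35±2° C. MIC was read visually. MBC came from subculturing clear wells, as ≥99.9% inoculum reduction.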

The subject of a further data set is human RBC. Kind of data set: Hemolysis of RBC. The data set is classed as cell-based. The method, then:
Varying amounts of peptide were incubated with the washed RBC for one hour at room temperature. Intact cells were pelleted by gentle centrifugation, and hemolysis of each sample was determined by absorption measurement at 450 nm. A positive control sample consisted of RBC lysed by the addition of 0.1% Triton, for which hemolysis was also determined by absorption measurement at 450 nm. Percentages of lysed RBC incubated with peptide were then calculated by the ratio of absorbances at 450 nm for the sample relative to the absorbance at 450 nm of the positive control sample. The MHC10 value was calculated as the minimum peptide concentration to induce 10% cell lysis.

A short description of data set [1]: Cytotoxicity against Jurkat cells (CellTiter Blue). It is filed as cell-based, human. To be noted: human. The method, then: (§1) The cytotoxicities of selected peptides against human T-lymphocytes, in particular Jurkat cells, was determined by growing 100 uL Jurkat cells in RPMI (approx. 5×10^5 cells/ml density) overnight at 37° C. under 5% CO2 atmosphere, in microtiter plate wells, in the presence and absence of peptides. Control reactions either lacked peptide (negative cytotoxicity control), or contained a buffer to completely lyse Jurkat cells (positive cytotoxicity control). The viabilities of cells were then determined by addition of 20 uL CellTiter Blue dye (Promega) to each well, and incubation of cells for a further 3 hrs at 37° C. Fluorescence values were measured for 1 sec at 540 nm/615 nm, and expressed relative to fluorescence values for negative and positive cytotoxicity control samples. Comparison with a fully lysed control allowed the calculation of a percentage killing for each peptide concentration. The MCC10 value was calculated as the minimum peptide concentration required to induce 10% cytotoxicity.
On the technique in general: Alamar Blue is a resazurin reagent that responds to reducing activity.

A further data set deals with Jurkat cells. Kind of data set: Cytotoxicity against Jurkat cells (CellTiter Blue). The data set is classed as cell-based, human. The method, then:
as §1

Each structure is given as a SMILES string. In brackets after ≈: the same amount, converted by molar mass. Peptide text beside a SMILES is read from it. * marks the point of attachment. Biotin = O=C1N[C@H]2[C@H](CS[C@H]2CCCCC(=O)*)N1

As for `CC[C@H](C)[C@H](NC(=O)[C@H](C)NC(=O)[C@H](CC(N)=O)NC(=O)[C@H](CS)NC(=O)[C@H](CS)NC(=O)CCCC[C@@H]1SC[C@@H]2NC(=O)N[C@@H]21)C(=O)N[C@H](C(=O)N[C@@H](Cc1ccc(O)cc1)C(=O)N[C@@H](CCCCN)C(=O)N[C@@H](Cc1c[nH]c2ccccc12)C(=O)N[C@H](C(=O)N[C@@H](CC(C)C)C(=O)N[C@@H](Cc1c[nH]cn1)C(=O)N[C@@H](Cc1ccccc1)C(=O)N[C@@H](Cc1ccccc1)C(=O)N[C@@H](Cc1c[nH]c2ccccc12)C(=O)N[C@@H](CCCNC(=N)N)C(=O)N[C@@H](CCCCN)C(=O)N[C@@H](CCCNC(=N)N)C(=O)N[C@@H](C)C(=O)N[C@@H](Cc1c[nH]c2ccccc12)C(=O)N[C@@H](Cc1ccc(O)cc1)C(=O)N[C@@H](CS)C(=O)N[C@@H](Cc1ccccc1)C(=O)O)[C@@H](C)CC)[C@@H](C)CC` [Ac228] (Biotin-CCNAIIYKWILHFFWRKRAWYCF-OH; N-terminus and C-terminus assumed), in the data set on A. baumannii, the minimum inhibitory concentration (MIC) was determined as 25 µM (≈ 82.4 µg/mL), the “MIC (μM) for non-amidated Peptide” value is 20 to 25 µM and the “bactericidal or bacteriostatic against A. baumannii” value is recorded as “bacteriostatic”. The “MBC (μM)” value against A. baumannii (A. baumannii (Table 8), reduces original inoculum by at least about 99.9%) is “bacteriostat”. Also, in the data set with human RBC, the MHC10 is roughly 10 µM and the “haemolytic activity (in words)” value is “reproducibly higher haemolytic activities”. In addition, in the data set with human RBC (red cells of human, 5), the “Percent hemolysis at 5 μM peptide” value was 2.6%. The “Percent hemolysis at 10 μM peptide” value in the data set on human RBC (red cells of human, 10) was 11.0%. In addition, in the data set on human RBC (red cells of human, 20), the “Percent hemolysis at 20 μM peptide” value was found to be 9.9%. Moreover, the “Percent hemolysis at 40 μM peptide” value with human RBC (red cells of human, 40) stood at 22.9%. Moreover, the “Percent hemolysis at 60 μM peptide” value in the data set on human RBC (red cells of human, 60) came out at 40.1%. Besides, the “Percent hemolysis at 80 μM peptide” value with human RBC (red cells of human, 80) turned out to be 80.4%. For the same compound, in the data set with human RBC (red cells of human, 1 h, 100), the “Percent hemolysis at 100 μM peptide” value worked out at 97.1%. In data set [1], this compound gave a cytotoxicity at 12.5 μM of 0%, a cytotoxicity at 25 μM of 5% and a cytotoxicity at 50 μM of 29%. The same compound showed an MCC10 in the data set with Jurkat cells of 42 µM.
As for `CC[C@H](C)[C@H](NC(=O)[C@@H]1CCCN1C(=O)CCCC[C@@H]1SC[C@@H]2NC(=O)N[C@@H]21)C(=O)N1CCC[C@H]1C(=O)N[C@@H](Cc1ccccc1)C(=O)N[C@@H](Cc1ccccc1)C(=O)N[C@@H](CC(N)=O)C(=O)N[C@@H](CCCNC(=N)N)C(=O)N[C@H](C(=O)NCC(=O)N[C@@H](Cc1ccccc1)C(=O)N[C@@H](Cc1ccccc1)C(=O)N[C@@H](CS)C(=O)N[C@@H](CC(C)C)C(=O)N1CCC[C@H]1C(=O)N[C@@H](CCCCN)C(=O)N[C@@H](CC(N)=O)C(=O)N[C@@H](CC(C)C)C(=O)N[C@@H](CCCCN)C(=O)N[C@@H](CCCNC(=N)N)C(=O)N[C@@H](CO)C(=O)N[C@@H](CCCCN)C(=O)N[C@@H](Cc1ccccc1)C(=O)N[C@@H](CS)C(=O)O)[C@@H](C)O` [Ac322] (Biotin-PIPFFNRTGFFCLPKNLKRSKFC-OH; N-terminus and C-terminus assumed), in the data set with A. baumannii, the “MIC (μM) for non-amidated Peptide” value is 5 µM. The compound also showed an MHC10 with human RBC of 25 µM. In data set [1], this compound yielded a cytotoxicity at 12.5 μM of 0%, a cytotoxicity at 25 μM of 0% and a cytotoxicity at 50 μM of 59%. The same compound showed an MCC10 in the data set with Jurkat cells of 30 µM.
As to `CC(C)C[C@H](NC(=O)[C@H](CC(N)=O)NC(=O)[C@H](CCCCN)NC(=O)[C@@H]1CCCN1C(=O)[C@H](CC(C)C)NC(=O)[C@H](CS)NC(=O)[C@H](Cc1ccccc1)NC(=O)[C@H](Cc1ccccc1)NC(=O)CNC(=O)[C@@H](NC(=O)[C@H](CCCNC(=N)N)NC(=O)CCCC[C@@H]1SC[C@@H]2NC(=O)N[C@@H]21)[C@@H](C)O)C(=O)N[C@@H](CCCCN)C(=O)N[C@@H](CCCNC(=N)N)C(=O)N[C@@H](CO)C(=O)N[C@@H](CCCCN)C(=O)N[C@@H](Cc1ccccc1)C(=O)N[C@@H](CS)C(=O)N[C@@H](C)C(=O)N[C@@H](Cc1ccccc1)C(=O)N[C@@H](CC(C)C)C(=O)N[C@@H](CC(=O)O)C(=O)N1CCC[C@H]1C(=O)N[C@H](C(=O)O)[C@@H](C)O` [Ac323] (Biotin-RTGFFCLPKNLKRSKFCAFLDPT-OH; N-terminus and C-terminus assumed), the “MIC (μM) for non-amidated Peptide” value with A. baumannii worked out at 20 µM. Moreover, the MHC10 in the data set with human RBC stood at 30 µM. In data set [1], this compound displayed a cytotoxicity at 12.5 μM of 9%, a cytotoxicity at 25 μM of 31% and a cytotoxicity at 50 μM of 49%. In the data set with Jurkat cells, this compound came in with an MCC10 of 13 µM.
On to `CC[C@H](C)[C@H](NC(=O)[C@H](Cc1ccccc1)NC(=O)[C@H](CC(C)C)NC(=O)[C@H](CCC(N)=O)NC(=O)[C@H](CCCNC(=N)N)NC(=O)[C@H](Cc1ccccc1)NC(=O)[C@H](Cc1ccc(O)cc1)NC(=O)[C@H](CC(C)C)NC(=O)[C@H](Cc1c[nH]c2ccccc12)NC(=O)[C@H](Cc1ccccc1)NC(=O)[C@H](CCCNC(=N)N)NC(=O)[C@H](CCCNC(=N)N)NC(=O)[C@H](CO)NC(=O)[C@H](CC(=O)O)NC(=O)CCCC[C@@H]1SC[C@@H]2NC(=O)N[C@@H]21)C(=O)N[C@@H](Cc1c[nH]cn1)C(=O)N[C@@H](CC(N)=O)C(=O)N1CCC[C@H]1C(=O)N[C@@H](CCCCN)C(=O)N[C@H](C(=O)N1CCC[C@H]1C(=O)N[C@H](C(=O)N[C@H](C(=O)N1CCC[C@H]1C(=O)O)[C@@H](C)O)[C@@H](C)CC)[C@@H](C)O` [Ac476] (Biotin-DSRRFWLYFRQLFIHNPKTPITP-OH), for which, in the data set with A. baumannii, the “MIC (μM) for non-amidated Peptide” value amounted to 5 µM. Also, in the data set with human RBC, the MHC10 turned out to be 50 µM. In data set [1], the cytotoxicity at 12.5 μM is 12%, the cytotoxicity at 25 μM was 18% and the cytotoxicity at 50 μM stood at 44%. The compound also registered an MCC10 in the data set on Jurkat cells of 10 µM.
With `CC[C@H](C)[C@H](NC(=O)[C@H](Cc1ccccc1)NC(=O)[C@H](CC(C)C)NC(=O)[C@H](CCC(N)=O)NC(=O)[C@H](CCCNC(=N)N)NC(=O)[C@H](Cc1ccccc1)NC(=O)[C@H](Cc1ccc(O)cc1)NC(=O)[C@H](CC(C)C)NC(=O)[C@H](Cc1c[nH]c2ccccc12)NC(=O)[C@H](Cc1ccccc1)NC(=O)[C@H](CCCNC(=N)N)NC(=O)[C@H](CCCNC(=N)N)NC(=O)[C@H](CO)NC(=O)[C@H](CC(=O)O)NC(=O)[C@H](CC(C)C)NC(=O)[C@H](Cc1c[nH]c2ccccc12)NC(=O)[C@H](Cc1ccccc1)NC(=O)[C@H](CC(=O)O)NC(=O)[C@H](CCCNC(=N)N)NC(=O)CCCC[C@@H]1SC[C@@H]2NC(=O)N[C@@H]21)C(=O)N[C@@H](Cc1c[nH]cn1)C(=O)N[C@@H](CC(N)=O)C(=O)N1CCC[C@H]1C(=O)N[C@@H](CCCCN)C(=O)O` [Ac475] (Biotin-RDFWLDSRRFWLYFRQLFIHNPK-OH), the “MIC (μM) for non-amidated Peptide” value in the data set on A. baumannii worked out at 15 µM. The compound further gave an MHC10 in the data set with human RBC of 10 µM. In data set [1], the cytotoxicity at 12.5 μM came out at 4%, the cytotoxicity at 25 μM was 4% and the cytotoxicity at 50 μM was determined as 60%. In the data set with Jurkat cells, this compound returned an MCC10 of 35 µM.

By MIC is commonly meant the lowest concentration found to suppress growth. Higher therefore signals a need for much substance.

The values are drawn from patent US20110262508A1, “ANTIMICROBIAL COMPOSITIONS, FORMULATIONS AND USES THEREOF” (priority 2007, published 2011).
